According to article PMC4376724, “Differential Phenotypic and Functional Profiles of TcCA-2 -Specific Cytotoxic CD8^+ T Cells in the Asymptomatic versus Cardiac Phase in Chagasic Patients” (PLoS ONE, 2015):

How the values were obtained:
[1] = system: PBMCs from asymptomatic HLA-A*02:01 Chagas disease patients; assay: HLA-A*02:01 restriction assay: peptide-pulsed K562-A2 cells as APC, IFN-γ secretion by patient PBMC; type: cell-based, human; conditions: range among patients with a positive response; K562-A2 pulsed with 1 mM peptide 1 h, 30 h co-culture; K562 level subtracted
Experimental: TAP-deficient T2 cells were used for the HLA-A*02:01 binding assays and the K562-A2 cells for the HLA-A*02:01 restriction assay. The cells were cultured in complete RPMI medium supplemented with 10% of inactivated Fetal Calf Serum (iFCS), 2 mM glutamine, and 100 U/ml penicillin. K562-A2 cells, expressing the HLA-A*02:01 molecule were cultured in the presence of […] of G-418, as previously described. The T2 and K562-A2 cells were kindly provided by Dr. Pedro Romero (University of Lausanne) and by Dr Peter Ponsaerts (University of Antwerp, with the permission of Dr. Cedrik Britten from Johanes Gutenberg-University Mainz), respectively.
(§1) For the screening of the recognition of TcCA-2 epitopes by Chagas disease patients, 10 HLA-A*02:01 adult patients in the asymptomatic phase of the disease (IND) were enrolled. For cytotoxicity, functional activity determinations and phenotypic characterization another group of 19 HLA-A*02:01 adults Chagas disease patients and 9 healthy donors were analyzed. These patients were at the chronic stage of the disease and were considered to be at the asymptomatic phase (IND, n = 8) if there was no evidence of having cardiac or gastrointestinal disorders. Chronic Chagas cardiomyopathy patients (CCC, n = 11) were stratified into G1 to G3 stages following Kuschnir classification according to clinical criteria and radiological, electrocardiographic and echocardiography analyses. The number of patients was the one recommended by the Hospital Ethical Committee. […] The patients were enrolled in both studies (functional and phenotypic characterization, IND n = 6 and CCC n = 7) when the available number of purified PBMC (limited by the cellular number isolated from each subject) was enough for both analyses. Another four CCC patients had to be enrolled to perform the phenotypic analysis in order to reach statistical significance.
Cytokine secretion (IL-4, IL-10, IL-6, IFN-γ, TNF-α) was determined in the supernatants of PBMC from Chagas disease patients and healthy donors, after in vitro stimulation with 1 μM of each peptide for 30 h at 37°C in RPMI supplemented with 10% iFBS as explained before. The secretion profile was determined by using a bead-based multiplex immunoassay system (Bio-Plex, Bio-Rad), following the manufacturer's instructions. The response was considered positive if an increase in the secretion of cytokines was at least three folds higher than the secretion by un-stimulated cells (basal secretion level) and at least, 4 pg/mL for IL-4, 2 pg/mL for IL-10, 15 pg/mL for IL-6 and 5 pg/mL for IFN-γ and TNF-α. The positive control consisted of 50 ng/mL Phorbol 12 myristate 13-acetate (PMA) and 500 ng/mL ionomycin (Sigma). Cytokine levels were quantified in each sample by using the Bio-Plex Manager software 4.1 (Bio-Rad). […]

[2] = system: PBMC from HLA-A*02:01 Chagas disease patients and healthy donors; assay: Cytokine secretion test (Bio-Plex multiplex immunoassay) in PBMC supernatants; type: cell-based, human; conditions: 1 μM peptide, 30 h; for Patients whose cells recognized the peptide by secreting IFN-γ, TNF-α and IL-6: positive = at least three folds non-peptide control and ≥15 pg/mL IL-6, ≥5 pg/mL IFN-γ and TNF-α; for IFNγ / IL6 / TNFα: non-peptide control subtracted
Experimental: as §1
Cytokine secretion (IL-4, IL-10, IL-6, IFN-γ, TNF-α) was determined in the supernatants of PBMC from Chagas disease patients and healthy donors, after in vitro stimulation with 1 μM of each peptide for 30 h at 37°C in RPMI supplemented with 10% iFBS as explained before. The secretion profile was determined by using a bead-based multiplex immunoassay system (Bio-Plex, Bio-Rad), following the manufacturer's instructions. The response was considered positive if an increase in the secretion of cytokines was at least three folds higher than the secretion by un-stimulated cells (basal secretion level) and at least, 4 pg/mL for IL-4, 2 pg/mL for IL-10, 15 pg/mL for IL-6 and 5 pg/mL for IFN-γ and TNF-α. The positive control consisted of 50 ng/mL Phorbol 12 myristate 13-acetate (PMA) and 500 ng/mL ionomycin (Sigma). Cytokine levels were quantified in each sample by using the Bio-Plex Manager software 4.1 (Bio-Rad).
Functional analysis of the epitope-specific CD8^+ T cells was carried out by the determination of the secretion profile of IFN-γ, TNF-α, IL-4, IL10 and IL-6 cytokines. […] CD8^+ T cells from 2 out of 11 patients responded to stimulation with peptide TcCA-2_273-281 by secreting IL-6. […] There was no secretion of IL-4 and IL-10 in PBMC after stimulation with any one of the four TcCA-2 peptides (data not shown). IFN-γ, TNF-α and IL6 cytokines secretion levels were higher in patients at the asymptomatic phase of the disease than in Chagas patients with associated cardiomyopathy.

## ALRNLRVFL [TcCA-2_607-615]
[1]
  INF-γ secretion range: 6.4 to 15.1 pg/mL
[2]; PBMC of Chagas patients
  Patients whose cells recognized the peptide by secreting IFN-γ, TNF-α and IL-6: 2 out of the 14
[2]; PBMC of patient CCC I 456
  IFNγ: 3 pg/mL
  IL6: 18 pg/mL
  TNFα: 12 pg/mL
[2]; PBMC of patient CCC I 770
  IFNγ: 0 pg/mL
  IL6: 49 pg/mL
  TNFα: 16 pg/mL
[2]; PBMC of patient CCC I 861
  IFNγ: 0 pg/mL
  IL6: -7 pg/mL
  TNFα: -3 pg/mL
[2]; PBMC of patient CCC I 884
  IFNγ: 0 pg/mL
  IL6: 0 pg/mL
  TNFα: 0 pg/mL
[2]; PBMC of patient CCC II 142
  IFNγ: 0 pg/mL
  IL6: -4 pg/mL
  TNFα: -15 pg/mL
[2]; PBMC of patient CCC III 509
  IFNγ: 0 pg/mL
  IL6: -5 pg/mL
  TNFα: -4 pg/mL
[2]; PBMC of patient CCC III 797
  IFNγ: -5 pg/mL
  IL6: 9 pg/mL
  TNFα: 3 pg/mL
[2]; PBMC of patient IND 265
  IFNγ: 81 pg/mL
  IL6: 1127 pg/mL
  TNFα: 83 pg/mL
[2]; PBMC of patient IND 283
  IFNγ: 15 pg/mL
  IL6: 55 pg/mL
  TNFα: 26 pg/mL
[2]; PBMC of patient IND 365
  IFNγ: 5 pg/mL
  IL6: 23 pg/mL
  TNFα: 23 pg/mL
[2]; PBMC of patient IND 388
  IFNγ: 1 pg/mL
  IL6: 32 pg/mL
  TNFα: -11 pg/mL
[2]; PBMC of patient IND 510
  IFNγ: 0 pg/mL
  IL6: -1 pg/mL
  TNFα: 2 pg/mL
[2]; PBMC of patient IND 535
  IFNγ: 0 pg/mL
  IL6: -5 pg/mL
  TNFα: -1 pg/mL
[2]; PBMC of patient IND 917
  IFNγ: 1 pg/mL
  IL6: -2 pg/mL
  TNFα: -3 pg/mL
[2]; PBMC of subject HD 001
  IFNγ: 1 pg/mL
  IL6: -6 pg/mL
  TNFα: -14 pg/mL
[2]; PBMC of subject HD 004
  IFNγ: 0 pg/mL
  IL6: -5 pg/mL
  TNFα: 0 pg/mL
[2]; PBMC of subject HD 005
  IFNγ: -21 pg/mL
  IL6: -77 pg/mL
  TNFα: -2 pg/mL
[2]; PBMC of subject HD 006
  IFNγ: 13 pg/mL
  IL6: 69 pg/mL
  TNFα: 5 pg/mL
[2]; PBMC of subject HD 008
  IFNγ: 3 pg/mL
  IL6: 22 pg/mL
  TNFα: 0 pg/mL
[2]; PBMC of subject HD 011
  IFNγ: 0 pg/mL
  IL6: -12 pg/mL
  TNFα: -8 pg/mL
[2]; PBMC of subject HD 340
  IFNγ: 0 pg/mL
  IL6: 6 pg/mL
  TNFα: 0 pg/mL
[2]; PBMC of subject HD 664
  IFNγ: -3 pg/mL
  IL6: 0 pg/mL
  TNFα: 0 pg/mL

## TVFDASRSTV [TcCA-2_442-451]
[1]
  INF-γ secretion range: 5.8 to 6.9 pg/mL
[2]; PBMC of Chagas patients
  Patients whose cells recognized the peptide by secreting IFN-γ, TNF-α and IL-6: 2 out of 14
[2]; PBMC of Chagas patients, same positivity criteria
  Patients whose cells recognized the peptide by secreting TNF-α and IL-6: 2 out of 14
[2]; PBMC of patient CCC I 456
  IFNγ: 4 pg/mL
  IL6: 46 pg/mL
  TNFα: 6 pg/mL
[2]; PBMC of patient CCC I 770
  IFNγ: -2 pg/mL
  IL6: 3 pg/mL
  TNFα: -11 pg/mL
[2]; PBMC of patient CCC I 861
  IFNγ: 0 pg/mL
  IL6: -4 pg/mL
  TNFα: -3 pg/mL
[2]; PBMC of patient CCC I 884
  IFNγ: 0 pg/mL
  IL6: 0 pg/mL
  TNFα: 0 pg/mL
[2]; PBMC of patient CCC II 142
  IFNγ: 2 pg/mL
  IL6: -3 pg/mL
  TNFα: -20 pg/mL
[2]; PBMC of patient CCC III 509
  IFNγ: 0 pg/mL
  IL6: -4 pg/mL
  TNFα: -5 pg/mL
[2]; PBMC of patient CCC III 797
  IFNγ: 3 pg/mL
  IL6: 31 pg/mL
  TNFα: 7 pg/mL
[2]; PBMC of patient IND 265
  IFNγ: 204 pg/mL
  IL6: 1641 pg/mL
  TNFα: 160 pg/mL
[2]; PBMC of patient IND 283
  IFNγ: 12 pg/mL
  IL6: 80 pg/mL
  TNFα: 35 pg/mL
[2]; PBMC of patient IND 365
  IFNγ: 0 pg/mL
  IL6: 7 pg/mL
  TNFα: 15 pg/mL
[2]; PBMC of patient IND 388
  IFNγ: 1 pg/mL
  IL6: 21 pg/mL
  TNFα: -10 pg/mL
[2]; PBMC of patient IND 510
  IFNγ: 0 pg/mL
  IL6: 1 pg/mL
  TNFα: 1 pg/mL
[2]; PBMC of patient IND 535
  IFNγ: 0 pg/mL
  IL6: -6 pg/mL
  TNFα: -1 pg/mL
[2]; PBMC of patient IND 917
  IFNγ: -1 pg/mL
  IL6: -13 pg/mL
  TNFα: -4 pg/mL
[2]; PBMC of subject HD 001
  IFNγ: 4 pg/mL
  IL6: 18 pg/mL
  TNFα: -6 pg/mL
[2]; PBMC of subject HD 004
  IFNγ: 0 pg/mL
  IL6: -15 pg/mL
  TNFα: -1 pg/mL
[2]; PBMC of subject HD 005
  IFNγ: 5 pg/mL
  IL6: 16 pg/mL
  TNFα: -1 pg/mL
[2]; PBMC of subject HD 006
  IFNγ: 2 pg/mL
  IL6: -2 pg/mL
  TNFα: 2 pg/mL
[2]; PBMC of subject HD 008
  IFNγ: 1 pg/mL
  IL6: 31 pg/mL
  TNFα: 15 pg/mL
[2]; PBMC of subject HD 011
  IFNγ: 8 pg/mL
  IL6: 54 pg/mL
  TNFα: 10 pg/mL
[2]; PBMC of subject HD 340
  IFNγ: 2 pg/mL
  IL6: 11 pg/mL
  TNFα: 3 pg/mL
[2]; PBMC of subject HD 664
  IFNγ: -3 pg/mL
  IL6: 0 pg/mL
  TNFα: 0 pg/mL
